pIC50: −log10 of the molar value. Where two headings read alike, the source gives them in different places. Numbered stars: 1 amine (or outer) side, 2 acyl side, 3 side chain; on linkers, the order of the positions; unused ones are H or OH. Bridge positions count the residues as written; N and C are the ends. Peptide text beside a SMILES is read from it. * marks the point of attachment. C20 diacid = O=C(O)CCCCCCCCCCCCCCCCCCC(=O)*; γGlu = O=C(O)[C@H](CCC(=O)[*:2])N[*:1]
Legend:
[1] = molecular target: T1, rat amylin receptor (rat calcitonin receptor + rat RAMP 3) (Rattus norvegicus, UniProt P32214+Q9JJ73); assay: ASSAY (VI) binding to the rat amylin receptor; conditions: Table 7
T1 construct: expressed in transfected cells; host or cells: BHK tk'ts 13 (transient, FuGENE 6), membranes
T1 sequence (P32214 25-479 isoform P32214-2 limits assumed): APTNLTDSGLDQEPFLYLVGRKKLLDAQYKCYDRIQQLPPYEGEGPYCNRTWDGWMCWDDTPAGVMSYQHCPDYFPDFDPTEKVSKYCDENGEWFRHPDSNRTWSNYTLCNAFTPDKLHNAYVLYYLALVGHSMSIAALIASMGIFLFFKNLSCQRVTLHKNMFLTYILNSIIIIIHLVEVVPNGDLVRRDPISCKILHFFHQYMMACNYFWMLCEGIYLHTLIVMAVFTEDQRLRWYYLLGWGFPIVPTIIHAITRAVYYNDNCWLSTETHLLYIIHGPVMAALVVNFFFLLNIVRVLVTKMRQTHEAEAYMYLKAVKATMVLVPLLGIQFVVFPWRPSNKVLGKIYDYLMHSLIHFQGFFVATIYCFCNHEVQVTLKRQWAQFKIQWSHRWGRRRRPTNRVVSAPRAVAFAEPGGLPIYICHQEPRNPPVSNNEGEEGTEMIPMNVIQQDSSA
T1 sequence (Q9JJ73 23-147 partner): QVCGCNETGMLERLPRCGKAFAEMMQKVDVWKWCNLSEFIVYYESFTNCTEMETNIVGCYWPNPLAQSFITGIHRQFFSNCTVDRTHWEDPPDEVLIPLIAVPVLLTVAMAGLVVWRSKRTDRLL
Procedure: Assay (VI)—Determination of the Binding to the Rat Amylin Receptor […] The BHK tk′ts 13 cells were transiently transfected with rat calcitonin receptor using FuGENE® 6 (Roche), according to the manufacturer's recommendations. […] Approximately 48 hours after transfection, the cells were harvested and membranes were prepared.

[2] = molecular target: T2, human amylin 3(a) receptor (human calcitonin receptor + RAMP-3) in BHK570 cells (Homo sapiens, UniProt O60896+P30988); assay: ASSAY (II)a functional assay, human amylin receptor (CRE luciferase); type: cell-based
T2 construct: expressed in transfected cells
Source text: 1. Luciferase Assay Outline
Activation of calcitonin and amylin (coexpression of calcitonin receptor and receptor activity modifying proteins (RAMP)) receptors lead to increased intracellular concentrations of cAMP. Consequently, transcription is activated by promoters containing multiple copies of the cAMP response element (CRE). It is thus possible to measure amylin activity by the use of a CRE luciferase reporter gene introduced into BHK cells also expressing calcitonin or amylin receptors.
2. Construction of Calcitonin (a)- and Amylin 3(a)-Receptor/CRE-Luc Cell Line.
The cell line was further transfected with RAMP-3, using standard methods. This turns the calcitonin receptor into an amylin 3(a) receptor. Methotrexate, Neomycin, and Hygromycin are selection markers for luciferase, the calcitonin receptor, and RAMP-3, respectively.
To perform activity assays, BHK calcitonin (a) receptor- or amylin 3(a)-receptor/CRE-luc cells were seeded in white 96 well culture plates at a density of about 20.000 cells/well. […] After incubation overnight at 37° C. and 5% CO2, the growth medium was replaced by 50 μl/well assay medium (DMEM (without phenol red), Glutamax™, 10% FBS, and 10 mM Hepes, pH 7.4). Further, 50 μl/well of standard or sample in assay buffer were added. After 3 hours incubation at 37° C. and 5% CO2, the assay medium with standard or sample were removed and replaced by 100 μl/well PBS. Further, 100 μl/well LucLite™ was added. The plates were sealed and incubated at room temperature for 30 minutes. Finally, luminescence was measured on a TopCounter (Packard) in SPC (single photon counting) mode.

[3] = molecular target: T3, human amylin receptor (membranes from Amylin 3(a)/CRE-luc cells) (Homo sapiens, UniProt O60896+P30988); assay: ASSAY (V) binding to the human amylin receptor (SPA, 125I-rat amylin);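 also: competition binding of cell membranes (35 ng/µL) mixed with SPA beads in 384-well plates at 40 µL total volume, read by scintillation counting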
T3 construct: expressed in transfected cells
T3 sequence (P30988 25-474): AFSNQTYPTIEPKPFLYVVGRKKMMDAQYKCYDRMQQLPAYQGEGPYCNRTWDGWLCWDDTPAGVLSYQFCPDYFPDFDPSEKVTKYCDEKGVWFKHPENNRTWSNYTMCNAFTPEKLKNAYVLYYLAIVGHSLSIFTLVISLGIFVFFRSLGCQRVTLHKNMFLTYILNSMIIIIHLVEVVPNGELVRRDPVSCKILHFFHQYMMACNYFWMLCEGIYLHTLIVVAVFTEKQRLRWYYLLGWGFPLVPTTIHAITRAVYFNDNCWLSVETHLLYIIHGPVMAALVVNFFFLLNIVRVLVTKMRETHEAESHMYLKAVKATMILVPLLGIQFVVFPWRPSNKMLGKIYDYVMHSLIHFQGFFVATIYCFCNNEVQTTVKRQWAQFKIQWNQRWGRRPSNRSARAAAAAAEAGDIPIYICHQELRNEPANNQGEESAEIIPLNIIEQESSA
T3 sequence (O60896 24-148 partner): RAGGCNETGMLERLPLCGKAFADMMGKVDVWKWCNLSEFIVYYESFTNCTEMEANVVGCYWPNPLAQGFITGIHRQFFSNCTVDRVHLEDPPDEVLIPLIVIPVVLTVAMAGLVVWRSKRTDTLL

[4] = ASSAY (III) ThT fibrillation assay for physical stability; type: physicochemical
Source text: Assay (III)—ThT Fibrillation Assays for the Assessment of Physical Stability of Protein Formulations Low physical stability of a polypeptide may lead to amyloid fibril formation, which is observed as well-ordered, thread-like macromolecular structures in the sample eventually resulting in gel formation. This has traditionally been measured by visual inspection of the sample. However, that kind of measurement is very subjective and depending on the observer. Therefore, the application of a small molecule indicator probe is much more advantageous. Thioflavin T (ThT) is such a probe and has a distinct fluorescence signature when binding to fibrils [Naiki et al. (1989) Anal. […] LeVine (1999) Methods. Enzymol. […], 274-284]. The time course for fibril formation can be described by a sigmoidal curve with the following expression [Nielsen et al. (2001) Biochemistry 40, 6036-6046]; […] Here, F is the ThT fluorescence at the time t. The constant t0 is the time needed to reach 50% of maximum fluorescence. […] Few of those intermediates nucleate to form a template onto which further intermediates may assembly and the fibrillation proceeds. The lag-time corresponds to the interval in which the critical mass of nucleus is built up and the apparent rate constant is the rate with which the fibril itself is formed. Sample Preparation Samples were prepared freshly before each assay. Each sample composition is described in each example. The pH of the sample was adjusted to the desired value using appropriate amounts of concentrated NaOH and HClO4 or HCl. Thioflavin T was added to the samples from a stock solution in H2O to a final concentration of 1 μM. Sample aliquots of 200 μl were placed in a 96 well microtiter plate (Packard OptiPlate™96, white polystyrene). Usually, four or eight replica of each sample (corresponding to one test condition) were placed in one column of wells. The plate was sealed with Scotch Pad (Qiagen). Incubation and Fluorescence Measurement Incubation at given temperature, shaking and measurement of the ThT fluorescence emission were done in a Fluoroskan Ascent FL fluorescence platereader or Varioskan platereader (Thermo Labsystems). The temperature was adjusted to 37° C. The orbital shaking was adjusted to 960 rpm with an amplitude of 1 mm in all the presented data. Fluorescence measurement was done using excitation through a 444 nm filter and measurement of emission through a 485 nm filter. Each run was initiated by incubating the plate at the assay temperature for 10 min. The plate was measured every 20 minutes for a desired period of time. Between each measurement, the plate was shaken and heated as described. Data Handling The measurement points were saved in Microsoft Excel format for further processing and curve drawing and fitting was performed using GraphPad Prism. The background emission from ThT in the absence of fibrils was negligible. The data points are typically a mean of four or eight samples and shown with standard deviation error bars. Only data obtained in the same experiment (i.e. samples on the same plate) are presented in the same graph ensuring a relative measure of fibrillation between experiments. The data set may be fitted to Eq. […] However, since full sigmodial curves in this case are not always achieved during the measurement time, the degree of fibrillation is expressed as ThT fluorescence tabulated as the mean of the samples and shown with the standard deviation at various time points. Measurement of Initial and Final Concentrations The polypeptide concentration in each of the tested formulations were measured both before application in the ThT fibrillation assay (“Initial”) and after completion of the ThT fibrillation (“After ThT assay”). Concentrations were determined by reverse HPLC methods using a pramlintide standard as a reference. Before measurement after completion 150 μl was collected from each of the replica and transferred to an Eppendorf tube. These were centrifuged at 30000 G for 40 mins. […]

[5] = ASSAY (IV) determination of solubility; type: physicochemical
Procedure: Assay (IV)—Determination of Solubility
The polypeptide was dissolved in water at −500 nmol/ml and mixed 1:1 with a series of buffers (100 mM glycylglycine pH 3.0, 100 mM glycylglycine pH 4.0, 100 mM glycylglycine pH 5.0, 100 mM bistrispropane pH 6.0, 100 mM bistrispropane pH 6.5, 100 mM bistrispropane pH 7.0, 100 mM bistrispropane pH 7.5, 100 mM bistrispropane pH 8.0). After 18 hours at room temperature the samples were centrifuged and the polypeptide concentration determined by UPLC.

[6] = hCTR funct. EC50 over hAmylin-R funct. EC50
[7] = human functional selectivity: hCTR funct. EC50 / hAmylin-R funct. EC50
[8] = Table 5, selectivity, hCTR bind IC50 / hAmylin-R bind IC50
[9] = Table 7, human binding selectivity, included for comparison

Structure (SMILES)	pIC50 ([1]; binding to rat amylin receptor, read-out: rAmylin-R bind IC50)	Ratio rCT/rAmylin binding ([1]; rat binding selectivity, rCTR IC50 / rAmylin-R IC50)	Ratio hCT/hAmylin funct. ([2]; hCTR funct. EC50 / hAmylin-R funct. EC50)	Ratio hCT/hAmylin funct. [2, 6]	Ratio hCT/hAmylin funct. [2, 7]	Ratio hCT/hAmylin binding [3, 8]	Ratio hCT/hAmylin binding [3, 9]	ThT pH 4.0 lag time (h) [4]	solubility at 18 h ([5]; bistrispropane buffer, pH 6.5, read-out: Solubility pH 6.5 Concentration)	solubility at 18 h ([5]; bistrispropane buffer, pH 7.5, read-out: Solubility pH 7.5 Concentration)	solubility at 18 h ([5]; bistrispropane buffer, pH 6.0, read-out: Solubility pH 6.0 Concentration)	solubility at 18 h ([5]; bistrispropane buffer, pH 7.0, read-out: Solubility pH 7.0 Concentration)	solubility at 18 h ([5]; bistrispropane buffer, pH 8.0, read-out: Solubility pH 8.0 Concentration)	solubility at 18 h ([5]; glycylglycine buffer, pH 3.0, read-out: Solubility pH 3.0 Concentration)	solubility at 18 h ([5]; glycylglycine buffer, pH 4.0, read-out: Solubility pH 4.0 Concentration)	solubility at 18 h ([5]; glycylglycine buffer, pH 5.0, read-out: Solubility pH 5.0 Concentration)	Ratio hCT/hAmylin funct. ([2]; hCTR funct. EC50 divided by hAmylin-R funct. EC50)
CC(C)C[C@H](NC(=O)[C@H](CCCNC(=N)N)NC(=O)[C@H](CCC(N)=O)NC(=O)[C@@H](NC(=O)[C@H](C)NC(=O)[C@@H]1CSSC[C@H](NC(=O)[C@H](CCCCN)NC(=O)CC[C@H](NC(=O)CCCCCCCCCCCCCCCCCCC(=O)O)C(=O)O)C(=O)N[C@@H](CC(N)=O)C(=O)N[C@@H]([C@@H](C)O)C(=O)N[C@@H](C)C(=O)N[C@@H]([C@@H](C)O)C(=O)N1)[C@@H](C)O)C(=O)N[C@@H](C)C(=O)N[C@@H](CCC(=O)O)C(=O)N[C@@H](Cc1ccccc1)C(=O)N[C@@H](CC(C)C)C(=O)N[C@@H](CCCNC(=N)N)C(=O)N[C@@H](Cc1c[nH]cn1)C(=O)N[C@@H](CO)C(=O)N[C@@H](CO)C(=O)N1CCC[C@H]1C(=O)N[C@@H](CC(N)=O)C(=O)N[C@@H](Cc1ccccc1)C(=O)NCC(=O)N[C@@H](C)C(=O)N1CCC[C@H]1C(=O)N[C@@H](CC(C)C)C(=O)N[C@@H](CO)C(=O)N[C@@H](CO)C(=O)N[C@H](C(=O)N[C@@H](CC(N)=O)C(=O)N[C@H](C(=O)NCC(=O)N[C@@H](CO)C(=O)N[C@@H](CC(N)=O)C(=O)N[C@H](C(=O)N1CCC[C@H]1C(N)=O)[C@@H](C)O)C(C)C)[C@@H](C)O [Example 5] ({C20 diacid-γGlu}-KCNTATCATQRLAEFLRHSSPNFGAPLSSTNVGSNTP-NH2; disulfide 2-7)	8.89	3.6	1.0	1.0	1.0	1.4	1.4	–	–	–	–	–	–	–	–	–	–
CC[C@H](C)[C@H](NC(=O)[C@H](C)NC(=O)CNC(=O)[C@H](Cc1ccccc1)NC(=O)[C@H](CC(N)=O)NC(=O)[C@@H]1CCCN1C(=O)[C@H](CO)NC(=O)[C@H](CO)NC(=O)[C@H](Cc1c[nH]cn1)NC(=O)[C@H](CCCNC(=N)N)NC(=O)[C@H](CC(C)C)NC(=O)[C@H](Cc1ccccc1)NC(=O)[C@H](CCC(=O)O)NC(=O)[C@H](C)NC(=O)[C@H](CC(C)C)NC(=O)[C@H](CCCNC(=N)N)NC(=O)[C@H](CCC(N)=O)NC(=O)[C@@H](NC(=O)[C@H](C)NC(=O)[C@@H]1CSSC[C@H](NC(=O)[C@H](CCCCN)NC(=O)CC[C@H](NC(=O)CCCCCCCCCCCCCCCCCCC(=O)O)C(=O)O)C(=O)N[C@@H](CC(N)=O)C(=O)N[C@@H]([C@@H](C)O)C(=O)N[C@@H](C)C(=O)N[C@@H]([C@@H](C)O)C(=O)N1)[C@@H](C)O)C(=O)N1CCC[C@H]1C(=O)N[C@@H](CO)C(=O)N[C@@H](CO)C(=O)N[C@H](C(=O)N[C@@H](CC(N)=O)C(=O)N[C@H](C(=O)NCC(=O)N[C@@H](CO)C(=O)N[C@@H](CC(N)=O)C(=O)N[C@H](C(=O)N[C@@H](Cc1ccc(O)cc1)C(N)=O)[C@@H](C)O)C(C)C)[C@@H](C)O [Example 9]	–	–	–	7.4	7.4	8.0	8.0	19 h	≥ 200 µM	≥ 200 µM	≥ 200 µM	≥ 200 µM	≥ 200 µM	≥ 200 µM	≥ 200 µM	≥ 200 µM	7.4

— patent publication US9023789B2, “Amylin analogs and pharmaceutical compositions thereof” (Novo Nordisk A/S, priority 2012, dated 2015)
